# Measured values published in patent US10363239B2, “Method for inhibiting growth of cancer cells” (Pain Therapeutics, Inc., priority 2013, dated 2019).
# How the values were obtained:
# Format in all cases: cell-based, human
# [1] = tested on: breast cancer HTB-22 cells; experiment: [3H]glucose uptake; details: 0.1-5 nM; 4 days
# Experimental: (§1) FIG. 1A through FIG. 1M illustrate the effects of various FLNA-binding compounds on glucose uptake in glioblastoma, melanoma, breast and pancreatic cancer cell lines, along with appropriate non-cancerous primary cell controls. Cells were grown in the absence or presence of 0.1-5 nM indicated compounds for 4 days. Following brief washes with PBS, cells were serum-deprived for 4 hours and then incubated in oxygenated Kreb's Ringer containing 0.1 μCi [^3H]glucose for 2 hours under constant oxygenation. The reaction was terminated by removal of the incubation medium, and cells were washed and scraped off to determine the amounts of [^3H]glucose in cells by scintillation spectrometry. […] N=5-6. […] . […] . To determine the effect of Compound C0105 on glucose utilization, the cancer and primary normal cells were plated extremely thinly (10%). Once cells attached, Compound C0105 was added at 0.1, 0.5, 1 or 5 nM in the medium twice daily (6 hours apart) for 4 days. The cells were serum-deprived (glucose deprived) for 2 hours. Cells were then rinsed with 1 ml PBS and glucose uptake was assessed by contacting the cells with [^3H]glucose (0.01 uCi/l ml) in Kreb's Ringer for 2 hours. Cells were then rinsed with 1 ml PBS 3 times, scraped off and their glucose content counted by liquid scintillation spectrophotometry.
# [2] = tested on: pancreatic cancer MiaPaCa2 cells; experiment: [3H]glucose uptake; details: 0.1-5 nM; 4 days
# Experimental: as §1
# [3] = tested on: FLNA-bound K-ras and ras-GAP in lung fibroblasts; experiment: FLNA-bound K-ras and ras-GAP (immunoprecipitation, Western blotting)
# Experimental: Thus, melanoma, two different pancreatic cancerous cell lines (MiaPaCa2 and BxPc3) and a glioblastoma cell line (U87) were treated with zero (vehicle), 0.1, 0.5, 1 and 5 nM Compound C0105 as previously discussed, and FLNA-bound K-ras and ras-GAP were immunoprecipitated, separated by Western blotting and the blot densities determined as discussed previously.
# To study the effect of Compound C0105 on pS^2152FLNA levels, FLNA linkages to key regulators including protein phosphatases as well as activated Akt (pS^473-, pT^308-Akt), mTOR (pS^2442mTOR) and ERK (pY/pT-ERK) levels, the cancer and normal cells were cultured to approximately 90% confluency and treated with vehicle or varying concentrations of Compound C0105. […]
# The cell lysates were diluted 5-fold with immunoprecipitation buffer and immunoprecipitated with anti-FLNA, -Akt, -mTOR and -ERK2 as described previously [Talbot et al., J Clin Inv 122(4):1-23 (2012); Wang et al., J Neurosci 32(29):9773-9784 (2012)]. The levels of FLNA linkages, activated phosphorylated Akt (pS^473 and pT^308), phosphorylated mTOR (pS^2448) and phosphorylated ERK2 (pY/pT) were determined in anti-FLNA, -Akt, -mTOR and -ERK2 immunoprecipitates by Western blotting with appropriate antibodies directed against PTEN, PP2A, K-RAS, ras-GAP (FLNA linkages), pS^473Akt, pT^308Akt, pS^2448mTOR and pY/pT ERK2 (activation of Akt, mTOR and ERK2). […]
# [4] = tested on: glioblastoma cells (U-87 MG); experiment: [3H]glucose uptake
# Experimental: as §1
# (§2) Both glioblastoma and melanoma cells were plated extremely thinly. Once cells attached, Compound C0105 was added at 0.1, 0.5, 1 and 5 nM, whereas the other compounds were present at 1 and 5 nM in the medium twice daily (6 hours apart) for 4 days. The cells were serum-deprived (glucose deprived) for 2 hours. Cells were then rinsed with 1 ml PBS and glucose uptake was assessed by contacting the cells with [3H]glucose (0.01 uCi/l ml) of Kreb's Ringer for 2 hours. Cells were then rinsed with 1 ml PBS 3 times, scraped off and their glucose contents counted by liquid scintillation spectrophotometry.
# melanoma cells (A2058) = experiment: [3H]glucose uptake
# Experimental: as §1, §2
# [5] = C0105 0.1-5 nM, other compounds 1 and 5 nM, twice daily for 4 days
smiles,measurement,setting,value
CN1CCC2(CC1)NCC(=O)N2Cc1ccccc1 [Compound C0105],Basal glucose uptake,[1],dose-dependent inhibition of basal glucose uptake
same,Basal glucose uptake,[2],dose-dependent inhibition of basal glucose uptake
same,FLNA-associated K-ras and ras-GAP,[3],had no effect on fibroblasts
same,Reduction of glucose uptake,"[4]; 0.1 nM, 4 days",25%
same,"Inhibition of glucose uptake, maximal effect","[4]; 1 nM, 4 days",50%
same,EC50,"[4]; 4 days, read-out: EC50, inhibition of glucose uptake",~0.1 nM
same,Glucose utilization,[4]; [5],decreased the elevated glucose utilization
same,Inhibition of glucose uptake,"melanoma cells (A2058); 0.1-5 nM, not dose-dependent",about 25%
same,Glucose utilization,melanoma cells (A2058); [5],decreased the elevated glucose utilization
